Experimental data published in EP4551202B1, “NAPHTHAZARIN DERIVATIVES FOR TREATMENT OF ONYCHOMYCOSIS” (Christian-Albrechts-Universität zu Kiel, priority 2022, dated 2024).
Like-named read-outs stand apart in the source and are kept apart here. Blank lines part the entries; values can stand above or below the compound they belong to.

Tests used:
[1] = tested on: Trichophyton rubrum I/95 (patient isolate); assay: Anti-mycotic activity assay in pathogen suspension (optical density at 600 nm); format: cell-based; conditions: light or radiation study, read-out: Tru IC50 with irradiation
Description: (§1) For determining the IC50 of the anti-mycotic activity of compounds, the human pathogen Candida albicans, strain DSM 1386, or clinical isolates of Trichophyton rubrum obtained from patient samples were used.
Trichophyton rubrum I/95 (patient isolate) was cultivated for 1 week on GPY (0.1% glucose, 0.05% petone, 0.01 yeast extract, 1.5% agar) at 28°C. A suspension of 5x10^4 spores/ml in M186 (1% glucose, 0.5% peptone from soybeans, 0.3% yeast extract, 0.3% malt extract) was prepared and added to each well of a microplate containing one of the pharmaceutical compounds, which were pipetted in triplicates for a final concentration of […] and 100 µM. The wells were irradiated using the custom-made light source with a peak wavelength of 519 nm. Handling of the test compounds and well plates took place in a darkened room equipped with a red-light LED to protect them from green light. After incubation for 72 h at 28 °C and 120 rpm the optical density at 600 nm was measured using the microplate reader Tecan Infinite M200.

[2] = tested on: Candida albicans, strain DSM 1386; assay: Anti-mycotic activity assay in pathogen suspension (resazurin fluorescence); format: cell-based
Description: as §1
Candida albicans DSM 1386 was cultivated overnight in medium M186/3 (3.3 % glucose, 0.16 % peptone from soybeans, 0.1% yeast extract, 0.1 % malt extract). Test samples were added in triplicates to a 96-well plate for a final assay concentration of 10 µM and 100 µM of pharmaceutical compounds. 200 µl of the yeast was added to each well after diluting the overnight culture to an optical density (600 nm) of 0.03. […] Handling of the test compounds and well plates took place in a darkened room equipped with red-light LEDs to protect them from green light. Microplates were incubated for 5 h at 28 °C on a shaker at 200 rpm. Subsequently, 10 µl resazurin solution (0.3 mg/ml in phosphate buffer) was added to each well and the microplates were incubated again for 30 min before measuring fluorescence (560/590 nm) using a microplate reader (Tecan Infinite M200, Tecan, Männedorf, Switzerland). Nystatin was used as positive control.

[3] = tested on: Trichophyton rubrum I/95 (patient isolate); assay: Anti-mycotic activity assay in pathogen suspension (optical density at 600 nm); format: cell-based; conditions: light or radiation study; antimycotic activity against Trichophyton rubrum; without irradiation (dark); read-out: Tru IC50 without irradiation
C. albicans = assay: Anti-mycotic activity assay from nail (infected nail model, cow horn membranes); format: cell-based
[4] = Migration into hoof plate from lacquer, Raman spectroscopy of cross-sections; format: in vitro ADME, bovine; conditions: 5 days
Description: As a further analysis, a bovine hoof plate, 2 mm thickness, was arranged on water-saturated cotton gauze, and pharmaceutical compound was deposited on the opposite surface of the hoof plate. This arrangement was incubated under static conditions at room temperature for 5 days. The pharmaceutical compound was used at 5 wt.-% in a preliminary formulation of 12.5 wt.-% Eudragit RL PO, 60 wt.-% ethanol, 15 wt.-% ethyl acetate, 5 wt.-% butyl acetate, 2.5 wt.-% triacetin, which formulation should mimic the Loceryl lacquer. For comparison, the topic antimycotics amorolfin in Loceryl lacquer and ciclopirox in Ciclopoli were used in parallel.
After the incubation for 5 d, the lacquer compositions were carefully removed and cross-sections from the hoof plates were made. […] This pattern of measurement points, each at a depth greater by 10 µm, up to a depth of at least 100 µm, was used for Raman spectroscopy for presence of pharmaceutical compound.

[5] = tested on: Trichophyton rubrum I/95 (patient isolates); assay: Anti-mycotic activity assay from nail (infected nail model, cow horn membranes); conditions: for growth of T. rubrum in cow horn membrane: 15 µL/membrane; for diffusion of the compound into the supporting agar: from cow horn membrane, infected nail model
Description: For testing the effect of the pharmaceutical compounds in a nail, compounds were applied as a solution of 5 mg/ml or 10 mg/ml in nitrocellulose-based cosmetic nail lacquer, diluted 1: 1 with ethyl acetate, onto cow horn membranes representing nail.
Trichophyton rubrum I/95 (patient isolates) was cultivated for 1-3 weeks on GPY (0.1 % glucose, 0.05 % peptone, 0.01 yeast extract, 1.5 % agar) at 28°C. For the infected nail model, petri dishes with M186 agar (1% glucose, 0.5% peptone from soybeans, 0.3% yeast extract, 0.3% malt extract, 1.5 % agar, supplemented with 100 U/ml penicillin and […]) where inoculated with the pathogen using sterile cotton swabs. Afterwards autoclaved cow horn membranes (in DPBS-buffer solution, 100 µm thick, 8 mm in diameter) where put onto the agar (5 per petri dish) followed by incubation for 48 h at 29 °C. […] The formulations were applied to 15 µL/membrane to the cow horn membranes using an Eppendorf pipette. After incubation for another 24 h four membranes of each type (control, vehicle, 5 mg/ml or 10 mg/ml deoxyshikonin) were transferred onto fresh petri dishes with the surface to which the formulation was applied now facing the agar. […] Afterwards formulations were applied (15 µL/membrane) onto the untreated side of the membranes (facing upwards), they were allowed to dry and were irradiated again for 5 min (2x). The dishes were incubated for 24 h at 29 °C and irradiated again for 5 min (2x). After 7 days of incubation at 29 °C the dishes were evaluated. Anytime handling the compounds and the agar plates after application of the formulations the ambient light was turned off and a red-light LED was used to protect them from any activating light source.

[6] = Comparison test of antimycotic effect upon irradiation; format: cell-based
[7] = antimycotic activity against Trichophyton rubrum, with irradiation, peak wavelength 519 nm
[8] = DSM1386, light or radiation study, antimycotic activity against Candida albicans, with irradiation, peak wavelength 519 nm, read-out: Ca IC50 with irradiation
[9] = 5 wt.-% in preliminary Eudragit RL PO lacquer formulation, bovine hoof plate 2 mm, room temperature, one topical application
[10] = with irradiation at 519 nm, 5 mg/ml or 10 mg/ml in diluted nitrocellulose-based nail lacquer, evaluated after 7 days
[11] = without irradiation, compound in diluted nitrocellulose-based nail lacquer
[12] = Candida albicans, DSM1386, light or radiation study, antimycotic activity against Candida albicans, with irradiation, peak wavelength 519 nm, read-out: Ca IC50 with irradiation
[13] = antimycotic activity against Candida albicans, with irradiation, peak wavelength 519 nm, read-out: Ca IC50 with irradiation

SMILES: NCC(=O)CCC(=O)O [5-amino laevulinic acid]
growth of C. albicans in cow horn membrane (C. albicans; with irradiation at 519 nm): did not suppress growth | growth of C. albicans in cow horn membrane (C. albicans; without irradiation): did not suppress growth | depth of migration into the keratin cross-section [4, 9]: 30 µm | growth of T. rubrum in cow horn membrane [5, 10]: did not suppress growth | growth of T. rubrum in cow horn membrane [5, 11]: did not suppress growth

SMILES: CC(C)=CCC(O)C1=CC(=O)c2c(O)ccc(O)c2C1=O (stereo not shown) [Shikonin/ Alkannin]
IC50 [1, 7]: 781 ± 407 nM | IC50 [2, 12]: 1480 nM | IC50 [3]: 10500 ± 6920 nM

SMILES: CCC1=CC(=O)c2c(O)ccc(O)c2C1=O [BJ-34]
IC50 [1, 7]: 24.2 ± 20.6 nM | IC50 [2, 8]: 715 ± 209 nM

SMILES: CC1=C(C)C(=O)c2c(O)ccc(O)c2C1=O [BJ-27]
IC50 [1, 7]: 321 ± 212 nM | IC50 [2, 8]: 2750 ± 70 nM

SMILES: O=C1C=CC(=O)c2c(O)ccc(O)c21 [Naphthazarin]
IC50 ([1]; Trichophyton rubrum): 353 ± 237 nM | IC50 ([2]; Candida albicans, DSM1386, light or radiation study, read-out: Ca IC50 with irradiation): 632 ± 175 nM

SMILES: CC1=CC(=O)c2c(O)ccc(O)c2C1=O [BJ-18]
IC50 [1, 7]: 87.6 ± 65.4 nM | IC50 [2, 8]: 2340 ± 846 nM | IC50 ([2]; DSM1386, light or radiation study, antimycotic activity against Candida albicans, without irradiation (dark), read-out: Ca IC50 without irradiation): 10900 ± 4080 nM

SMILES: CC(C)=CCCC1=CC(=O)c2c(O)ccc(O)c2C1=O [DOS, Deoxyshikonin]
depth of migration into the keratin cross-section [4, 9]: more than 50 µm | IC50 [1, 7]: 32.2 ± 17.4 nM | growth of T. rubrum in cow horn membrane [5, 10]: effectively suppressed growth of T. rubrum | growth of T. rubrum in cow horn membrane [5, 11]: reduced compared to both controls but not suppressed | IC50 [2, 12]: 213 ± 54.7 nM | IC50 [2, 13]: 213 ± 55 nM

SMILES: CC(C)C1=CC(=O)c2c(O)ccc(O)c2C1=O [BJ-28]
IC50 [1, 7]: 42.7 nM | IC50 [2, 8]: 1040 ± 185 nM

SMILES: CCCC1=CC(=O)c2c(O)ccc(O)c2C1=O [BJ-35]
IC50 [1, 7]: 13 ± 12.2 nM | IC50 [2, 8]: 599 ± 289 nM

SMILES: O=C1C=C(O)C(=O)c2ccccc21 [2-hydroxy-1,4-naphthochinone]
antimycotic effect upon irradiation [6]: essentially no antimycotic effect

SMILES: CCC(C)(C)c1ccc(CC(C)CN2C[C@@H](C)O[C@@H](C)C2)cc1 (stereo partly shown) [amorolfin]
depth of migration into the keratin cross-section ([4]; commercial lacquers (amorolfin in Loceryl lacquer, ciclopirox in Ciclopoli), bovine hoof plate 2 mm, room temperature): could not be detected inside the keratin cross-section

SMILES: C[C@@H]1[C@H](O)[C@@H](C)/C=C/C=C/CC/C=C/C=C/C=C/C=C/C(O[C@H]2O[C@H](C)[C@@H](O)[C@H](N)[C@@H]2O)CC2O[C@](O)(CC(O)C(O)CCC(O)CC(O)CC(O)CC(=O)O[C@H]1C)CC(O)C2C(=O)O (stereo partly shown) [Nystatin, reference compound]
IC50 [2, 13]: 1660 ± 886 nM | IC50 ([2]; antimycotic activity against Candida albicans, without irradiation (dark), read-out: Ca IC50 without irradiation): 692 nM | activity under irradiation compared with no irradiation ([2]; under irradiation, believed to be caused by decomposition under irradiation): lower activity under irradiation

SMILES: CC(C)(C)C1=CC(=O)c2c(O)ccc(O)c2C1=O [BJ-19]
IC50 [1, 7]: 244 ± 192 nM | IC50 [2, 8]: 7650 ± 4480 nM

The next lines start with results.

IC50 [1, 7]: 3340 nM | IC50 [2, 8]: 1480 nM | IC50 [3]: 8140 nM
SMILES: CN(C)C1=CC(=O)c2c(O)ccc(O)c2C1=O [BJ-SK-Amin]

depth of migration into the keratin cross-section ([4]; bovine, 5 wt.-%): more than 70 µm | IC50 [1, 7]: 1 ± 0.3 nM | IC50 [2, 8]: 556 ± 355 nM
SMILES: CCCCC1=CC(=O)c2c(O)ccc(O)c2C1=O [BJ-36]
growth of C. albicans in cow horn membrane (C. albicans; with irradiation at 519 nm): effectively eliminated any growth | growth of C. albicans in cow horn membrane (C. albicans; without irradiation): not effective in suppressing growth | diffusion of the compound into the supporting agar [5]: without diffusion of the compound into the supporting agar | growth of T. rubrum in cow horn membrane [5, 10]: effectively eliminated any growth | growth of T. rubrum in cow horn membrane [5, 11]: not effective in suppressing growth

IC50 [1, 7]: 352 ± 150 nM | IC50 [2, 8]: 570 nM
SMILES: O=C1C=C(Nc2ccccc2)C(=O)c2c(O)ccc(O)c21 [BJ-49]

IC50 [1, 7]: 2.9 nM
SMILES: O=C1C=C(c2ccccc2)C(=O)c2c(O)ccc(O)c21 [BJ-39]

depth of migration into the keratin cross-section ([4]; bovine, 5 wt.-%): 50 µm
SMILES: CN(C)c1ccc2nc3ccc(=[N+](C)C)cc-3sc2c1 [methylene blue, reference compound]
growth of C. albicans in cow horn membrane (C. albicans; with irradiation at 519 nm): did not suppress growth | growth of C. albicans in cow horn membrane (C. albicans; without irradiation): did not suppress growth | diffusion of the compound into the supporting agar [5]: diffusion of methylene blue into the supporting agar | growth of T. rubrum in cow horn membrane [5, 10]: did not suppress growth | growth of T. rubrum in cow horn membrane [5, 11]: did not suppress growth

depth of migration into the keratin cross-section ([4]; bovine): ≤ 40 µm
SMILES: Cc1cc(C2CCCCC2)n(O)c(=O)c1 [ciclopirox]
